Here are results for one compound from US10081609B2, “Compounds for inducing proliferation and differentiation of cells, and methods of use thereof” (The Broad Institute, Inc., priority 2013, dated 2018).

Holding throughout (format): cell-based
For data set [1], the system named is iPS-derived endothelial cells. The data set is described as follows: Differentiation of iPS-derived endothelial cells (nitric oxide). The protocol: Cells were assayed for nitric oxide (NO), a mature marker for endothelial cells. CB=FPH2, M=FH1, E=PH1, while Null and DMSO are control runs with no additive and vehicle only, respectively.
The subject of data set [2] is primary human hepatocytes. The data set is described as follows: Expansion of primary human hepatocytes from six additional cell sources (Ki67/albumin staining, FACS). As for the experimental part:
On day seven, the number of hepatocytes was quantified by FACS analysis (FIG. 6B). Day one untreated controls was added to the bar graph for reference.

The test system of data set [3] is human primary hepatocytes. As to the kind of experiment: Expansion of human primary hepatocytes on growth-arrested J2-3T3 feeder layer in 12-well plates (imaging, cell counting, FACS, biochemical assays). Particulars: 20 μM on days 1 and 5, 7 days culture. The protocol:
Culture media were collected and frozen at −20° C. until analysis. Albumin content was measured through sandwich ELISA assays (MP Biomedicals, Fitzgerald, Bethyl Laboratories) using horseradish peroxidase detection and 3,3′,5,5′-tetramethylbenzidine (TMB, Fitzgerald Industries) as a substrate. Urea concentration was determined colorimetrically using diacetylmonoxime with acid and heat (Stanbio Labs). To quantify CYP450 activity, at 48 hours after small molecule exposure, cultures were incubated with substrates (coumarin from Sigma for CYP2A6, luciferin-IPA from Promega for CYP3A4) for 4 hours at 37° C. Incubation medium was collected and metabolite concentration quantified via luminescence, or fluorescence after hydrolization of potential metabolite conjugates by β-glucuronidase/arylsulfatase (Roche, Ind.).
To characterize the effects of FPH1 and FPH2 outside of the screening platform, human primary hepatocytes were seeded at a density of ˜20,000 cells/cm^2, into standard 12-well tissue culture plates on top of a feeder layer of growth-arrested J2-3T3s. These cells were cultured for 7 days, during which time a single compound/FPH was supplemented into the media on days 1 and 5 at a concentration of 20 μM. Treated hepatocyte colonies increased in size over time, with more hepatocytes populating each colony (FIG. 2D, 2E).
To characterize the degree of proliferation and to obtain a doubling time, cells were counted and fluorescence-activated cell sorting (FACS) was performed (FIG. 2H). For cell counting, FPH-treated cells were trypsinized after seven days in culture. The number of cells was quantified using an automated cell counter. The number of hepatocytes was obtained by subtracting the number of fibroblasts from the total number of cells found in the corresponding co-culture. For FACS analysis, growth arrested J2-3T3s were labeled with CM-DiI prior to initiation of co-culture so that hepatocytes can be identified via negative selection. To enable cell counting during FACS, each sample was supplemented with fluorescent counting beads. […] Over 7 days, FPH1 induced hepatocyte doublings at a rate that is consistent with reported liver regeneration kinetics in vivo.
To assess the phenotype of the treated hepatocytes, imaging, biochemical analyses and gene expression profiling were performed. […] Albumin secretion and urea synthesis, a surrogate marker of nitrogen metabolism, were both stable throughout FPH treatment (FIG. 3A top and middle). Metabolic functions were assessed via examinations of cytochrome P450 (CYP450) activity and canalicular transport. […] Gene expression profiling confirmed that there are no significant differences between FPH-treated and untreated hepatocytes (FIG. 3C).

On to `Cc1ccc(Cl)cc1N(CC(=O)Nc1c(F)cccc1F)S(C)(=O)=O` [FPH2, 2-(N-(5-chloro-2-methylphenyl)methylsulfonamido)-N-(2,6-difluorophenyl)acetamide], for which the “differentiation of iPS-derived endothelial cells (nitric oxide)” value in data set [1] is reported as “induce differentiation”. Besides, in data set [2] (day seven, all donors), the “number of hepatocytes by FACS” value is recorded as “increase”. In data set [2] (six additional cell sources, six days in culture), the “Ki67 staining co-localized with albumin labeled hepatocytes” value is recorded as “increased”. Moreover, in data set [3], the “Ki67 staining / number of Ki67-positive nuclei” value is “more elevated” and the “increase in the area of albumin-positive colonies” value was at most 3.5 fold.
